According to patent US20070036871A1, “TECHNIQUE FOR TREATMENT AND PREVENTION OF FUNGAL DISEASES IN GROWING GRAPES BY APPLICATION OF A SODIUM CHLORITE, UREA SULFURIC ACID SOLUTION” (priority 2005, published 2007):
“And” between values parts separate entries of the source, which are not always exact repeats. Equal entries are not always repeated.

Test system: powdery mildew
Assay: Field trials of foliar fungicide treatments on Carignane grape vines against powdery mildew (Example IV)
Assay type: in vivo
[1] = individual plot data, rated July 3 after June 22 treatment
[2] = individual plot data, rated July 12 after July 3 treatment
[3] = individual plot data, rated June 22 after June 12 treatment
[4] = rated July 3 after June 22 treatment (10 days after second treatment), average of plots
[5] = rated July 12 after July 3 treatment (10 days after third treatment), average of plots
[6] = rated June 22 after June 12 treatment (10 days after first treatment), average of plots

For `[S]` [4-6 lb/acre sulphur, sulphur], the “% fruit w/ symptoms” value [1] was 20% and 40% and 15% and 5%, the “% leaves w/ symptoms” value [1] was 10% and 20% and 2% and 8% and the “% severity of infected fruit” value [1] was 15% and 30% and 10% and 5%. For the same compound, the “% severity of infected leaves” value [1] was 15% and 20% and 4% and 5%, the “% fruit w/ symptoms” value [2] was 10% and 60% and 40% and 20% and the “% leaves w/ symptoms” value [2] was 2% (3×) and 15%. For the same compound, the “% severity of infected fruit” value [2] was 10% (2×) and 40% and 25%, the “% severity of infected leaves” value [2] was 5% (3×) and 2% and the “% fruit w/ symptoms” value [3] was 30% and 40% and 20% and 15%. For the same compound, the “% leaves w/ symptoms” value [3] was 2% (2×) and 20% and 5%, the “% severity of infected fruit” value [3] was 8% and 30% and 6% and 20% and the “% severity of infected leaves” value [3] was 2% (2×) and 18% and 5%. For the same compound, the “% fruit w/ symptoms” value [4] was 20%, the “% leaves w/ symptoms” value [4] was 10% and the “% severity of infected fruit” value [4] was 15%. The “% severity of infected leaves” value [4] was 11% and 20%, the “% fruit w/ symptoms” value [5] was 32.5% and the “% leaves w/ symptoms” value [5] was 5.25%. The “% severity of infected fruit” value [5] was 21.25%, the “% severity of infected leaves” value [5] was 4.25% and the “% fruit w/ symptoms” value [6] was 26.25%. The “% leaves w/ symptoms” value [6] was 7.25%, the “% severity of infected fruit” value [6] was 16% and the “% severity of infected leaves” value [6] was 6.75%. The “fungal disease control (in words)” value (ten days after the third treatment) was “substantially lower disease infection in leaves over the low rate NaClO2+US acid treatment”.
